Earlier results in paper PMC12347832, “Multi-Component Synthesis of New Fluorinated-Pyrrolo[3,4-b]pyridin-5-ones Containing the 4-Amino-7-chloroquinoline Moiety and In Vitro–In Silico Studies Against Human SARS-CoV-2” (International Journal of Molecular Sciences, 2025).

System: SARS-CoV-2
Settings: cited from earlier work

For `CCN(CC)CCCC(C)Nc1ccnc2cc(Cl)ccc12` (stereo not shown) [Chloroquine], the IC50 is given as 1130 nM.
